Measurements from ChEMBL document CHEMBL1201862, “PubChem BioAssay data set” (2004).
Each block holds one compound with its values, some of them ahead of it. Calls of active or inactive are those of the source.

Key:
[1] = molecular target: Cytochrome P450 2C9 (Homo sapiens, UniProt P11712)
[2] = molecular target: Cytochrome P450 2C19 (Homo sapiens, UniProt P33261); assay: Cytochrome panel assay with activity outcomes. Panel member name: p450-cyp2c19 Compounds with AC50 equal or less than 10 uM are considered active; format: functional
[3] = molecular target: T1, Cytochrome P450 1A2 (Homo sapiens, UniProt P05177);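 also: PubChem cytochrome P450 panel assay, CYP1A2 panel member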
T1 sequence (P05177 whole entry): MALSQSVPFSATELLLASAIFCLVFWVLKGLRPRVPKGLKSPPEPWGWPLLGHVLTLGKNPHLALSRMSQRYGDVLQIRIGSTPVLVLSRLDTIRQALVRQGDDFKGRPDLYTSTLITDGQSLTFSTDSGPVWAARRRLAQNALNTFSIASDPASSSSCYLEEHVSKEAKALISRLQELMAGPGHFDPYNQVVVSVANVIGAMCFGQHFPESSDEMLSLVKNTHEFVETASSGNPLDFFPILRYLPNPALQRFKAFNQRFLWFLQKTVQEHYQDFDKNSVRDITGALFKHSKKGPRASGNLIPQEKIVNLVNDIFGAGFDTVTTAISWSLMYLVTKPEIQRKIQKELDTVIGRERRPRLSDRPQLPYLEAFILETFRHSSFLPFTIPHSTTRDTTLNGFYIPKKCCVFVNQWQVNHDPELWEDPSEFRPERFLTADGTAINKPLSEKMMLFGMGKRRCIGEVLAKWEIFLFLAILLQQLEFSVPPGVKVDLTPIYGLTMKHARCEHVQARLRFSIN

[4] = CRF-BP/CRF-R2 complex antagonists, dose response, cell-based, uHTS hits, 384-well (AID 651639); format: functional, Homo sapiens; settings: read-out: IC50_Mean
[5] = molecular target: T2, Corticotropin-releasing factor receptor 2/Corticotropin-releasing factor-binding protein (Homo sapiens, UniProt P24387+Q13324); assay: Dose Response confirmation of uHTS hits for small molecule antagonists of the CRF-binding protein and CRF-R2 receptor complex.; format: functional; settings: read-out: IC50_Mean
T2 sequence (Q13324 whole entry): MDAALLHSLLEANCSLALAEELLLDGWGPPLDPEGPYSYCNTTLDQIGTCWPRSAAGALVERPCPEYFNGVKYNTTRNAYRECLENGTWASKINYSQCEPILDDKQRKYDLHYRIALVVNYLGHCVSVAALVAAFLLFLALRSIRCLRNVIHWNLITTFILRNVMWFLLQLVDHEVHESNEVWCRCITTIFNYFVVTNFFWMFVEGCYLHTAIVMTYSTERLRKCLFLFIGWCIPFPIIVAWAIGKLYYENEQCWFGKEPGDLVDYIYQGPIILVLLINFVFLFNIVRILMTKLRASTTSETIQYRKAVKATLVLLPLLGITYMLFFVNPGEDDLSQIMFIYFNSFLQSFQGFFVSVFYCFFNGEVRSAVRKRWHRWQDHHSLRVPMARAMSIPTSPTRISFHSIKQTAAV
T2 sequence (P24387 whole entry): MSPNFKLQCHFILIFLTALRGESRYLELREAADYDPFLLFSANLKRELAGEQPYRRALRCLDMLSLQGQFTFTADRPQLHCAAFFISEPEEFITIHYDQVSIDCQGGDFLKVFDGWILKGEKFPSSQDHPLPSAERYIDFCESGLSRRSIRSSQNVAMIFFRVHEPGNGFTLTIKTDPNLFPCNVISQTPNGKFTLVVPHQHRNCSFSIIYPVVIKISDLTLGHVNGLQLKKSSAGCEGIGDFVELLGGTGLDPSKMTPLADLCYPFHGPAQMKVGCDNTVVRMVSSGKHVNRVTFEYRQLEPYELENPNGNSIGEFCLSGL

[6] = molecular target: T2, Corticotropin-releasing factor receptor 2/Corticotropin-releasing factor-binding protein; assay: activators of CRF receptor 2 with binding protein – uHTS hits, confirmation (AID 602473); format: functional; settings: read-out: EC50_Mean
[7] = molecular target: Cytochrome P450 2D6 (Homo sapiens, UniProt P10635);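 also: CYP2D6 member of a cytochrome P450 panel assay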
[8] = HEK293T cytotoxicity, dose response, cytotoxicity control for miR-122 modulator project, cell-based, inhibitor set, cherry-pick, set 2 (AID 720697); format: functional
[9] = Shn3 3'UTR reporter inhibitors, dose response, cell-based, Clone20 osteoblasts, firefly luciferase, cherry-picked (AID 624132); format: functional;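 also: firefly luciferase luminescence from reporter carrying the Shn3 3'UTR in osteoblasts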
[10] = HepG2 cell cytotoxicity, dose response, cytotoxicity control for Shn3 inhibitor project, CellTiter-Glo, cherry-picked (AID 624134); format: functional, cell-based
[11] = control 3'UTR Renilla luciferase suppression, dose response, counter-screen for Shn3 inhibitor project, cell-based, Clone20-Shn3RL, cherry-picked (AID 624133); format: functional
[12] = Luminescence Cell-Based Dose Retest to Confirm Inhibitors of Cancer Stem Cells. [Related pubchem assays (depositor defined):AID2717, AID2721]; format: functional; settings: Homo sapiens
[13] = cytotoxicity in HEK-293T cells, dose response, cytotoxicity control for TCR NF-kB inhibitor project, luminescence, T-cell screen hits (AID 489026); format: functional, cell-based;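 also: cells exposed to compound about 14 hours before the viability readout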
[14] = molecular target: T3, Heat shock factor protein 1 (Mus musculus, UniProt P38532); assay: HSF1 potentiators in luciferase reporter cells, confirmation, cell-based, NIH3T3, luminescence, dose retest (AID 435004); format: functional;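 also: stress induced by proteasome inhibitor MG132 added 30 min after compound; luciferase reporter driven by HSF1 response element in NIH3T3 cells; actives raise luminescence as potentiators of the MG132 stress response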
T3 sequence (P38532 whole entry): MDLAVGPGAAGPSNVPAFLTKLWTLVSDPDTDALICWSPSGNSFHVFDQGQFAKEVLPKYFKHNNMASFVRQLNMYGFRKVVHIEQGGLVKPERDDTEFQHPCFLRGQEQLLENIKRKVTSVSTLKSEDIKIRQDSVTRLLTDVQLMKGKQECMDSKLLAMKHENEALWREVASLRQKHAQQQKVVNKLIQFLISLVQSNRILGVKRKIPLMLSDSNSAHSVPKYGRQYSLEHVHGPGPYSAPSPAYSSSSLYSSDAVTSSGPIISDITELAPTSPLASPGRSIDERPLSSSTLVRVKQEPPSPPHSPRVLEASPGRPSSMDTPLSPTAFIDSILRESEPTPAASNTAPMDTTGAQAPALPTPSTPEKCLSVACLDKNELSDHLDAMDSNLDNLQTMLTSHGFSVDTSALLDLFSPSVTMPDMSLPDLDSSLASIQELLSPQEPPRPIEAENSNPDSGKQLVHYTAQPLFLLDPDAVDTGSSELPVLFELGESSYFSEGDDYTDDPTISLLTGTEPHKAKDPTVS

[15] = inhibitors of PGC1a acetylation in cells, dose response, cell-based, cherry-picked samples (AID 720514); format: functional;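 also: potency may reflect raised or lowered acetylation signal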
[16] = molecular target: Glucose-6-phosphate 1-dehydrogenase (Homo sapiens, UniProt P11413); assay: human G6PD enzyme inhibitors, dose response, selectivity assay for P. falciparum G6PD inhibitor project, biochemical, fluorescence (AID 504792); format: functional
Chain of Glucose-6-phosphate 1-dehydrogenase (P11413 whole entry): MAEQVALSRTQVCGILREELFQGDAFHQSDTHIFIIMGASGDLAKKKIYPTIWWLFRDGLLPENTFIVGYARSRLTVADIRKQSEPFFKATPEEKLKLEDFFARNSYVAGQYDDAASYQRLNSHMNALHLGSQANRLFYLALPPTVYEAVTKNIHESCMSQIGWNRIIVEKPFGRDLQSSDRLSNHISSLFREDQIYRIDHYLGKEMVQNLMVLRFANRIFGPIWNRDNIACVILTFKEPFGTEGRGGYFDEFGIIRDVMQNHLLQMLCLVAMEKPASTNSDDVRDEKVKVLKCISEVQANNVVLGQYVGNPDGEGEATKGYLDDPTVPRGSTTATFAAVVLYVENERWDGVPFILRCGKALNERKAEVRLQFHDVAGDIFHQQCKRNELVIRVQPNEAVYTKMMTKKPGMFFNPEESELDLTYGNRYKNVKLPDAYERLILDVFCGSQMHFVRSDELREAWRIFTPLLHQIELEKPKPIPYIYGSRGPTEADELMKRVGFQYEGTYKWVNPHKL

Chain of Cytochrome P450 2C9 (P11712 whole entry): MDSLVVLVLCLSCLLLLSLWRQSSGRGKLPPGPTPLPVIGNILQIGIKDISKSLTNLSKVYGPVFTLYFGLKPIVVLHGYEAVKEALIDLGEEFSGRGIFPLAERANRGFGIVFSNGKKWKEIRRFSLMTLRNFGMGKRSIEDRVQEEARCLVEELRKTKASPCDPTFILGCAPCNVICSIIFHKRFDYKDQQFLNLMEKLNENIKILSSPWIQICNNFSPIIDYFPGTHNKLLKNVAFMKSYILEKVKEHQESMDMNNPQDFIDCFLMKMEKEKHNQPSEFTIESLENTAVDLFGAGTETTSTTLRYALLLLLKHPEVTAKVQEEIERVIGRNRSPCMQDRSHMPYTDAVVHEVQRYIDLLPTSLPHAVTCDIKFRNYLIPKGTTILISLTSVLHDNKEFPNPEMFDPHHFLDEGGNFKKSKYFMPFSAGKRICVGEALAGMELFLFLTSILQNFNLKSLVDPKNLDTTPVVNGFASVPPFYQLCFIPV
Chain of Cytochrome P450 2D6 (P10635 whole entry): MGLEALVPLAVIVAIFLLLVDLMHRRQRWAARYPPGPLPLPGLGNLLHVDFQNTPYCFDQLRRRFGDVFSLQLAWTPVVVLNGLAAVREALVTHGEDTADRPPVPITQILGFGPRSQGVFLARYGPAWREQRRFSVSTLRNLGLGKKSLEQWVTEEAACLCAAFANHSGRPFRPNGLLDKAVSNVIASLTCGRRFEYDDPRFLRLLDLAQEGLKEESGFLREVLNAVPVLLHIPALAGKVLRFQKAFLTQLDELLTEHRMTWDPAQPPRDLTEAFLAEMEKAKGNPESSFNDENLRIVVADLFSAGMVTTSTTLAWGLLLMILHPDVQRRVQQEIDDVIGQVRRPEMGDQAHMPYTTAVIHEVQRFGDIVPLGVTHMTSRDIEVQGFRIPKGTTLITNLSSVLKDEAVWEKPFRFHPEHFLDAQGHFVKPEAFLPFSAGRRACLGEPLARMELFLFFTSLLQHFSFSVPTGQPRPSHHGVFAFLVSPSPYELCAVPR
Chain of Cytochrome P450 2C19 (P33261 whole entry): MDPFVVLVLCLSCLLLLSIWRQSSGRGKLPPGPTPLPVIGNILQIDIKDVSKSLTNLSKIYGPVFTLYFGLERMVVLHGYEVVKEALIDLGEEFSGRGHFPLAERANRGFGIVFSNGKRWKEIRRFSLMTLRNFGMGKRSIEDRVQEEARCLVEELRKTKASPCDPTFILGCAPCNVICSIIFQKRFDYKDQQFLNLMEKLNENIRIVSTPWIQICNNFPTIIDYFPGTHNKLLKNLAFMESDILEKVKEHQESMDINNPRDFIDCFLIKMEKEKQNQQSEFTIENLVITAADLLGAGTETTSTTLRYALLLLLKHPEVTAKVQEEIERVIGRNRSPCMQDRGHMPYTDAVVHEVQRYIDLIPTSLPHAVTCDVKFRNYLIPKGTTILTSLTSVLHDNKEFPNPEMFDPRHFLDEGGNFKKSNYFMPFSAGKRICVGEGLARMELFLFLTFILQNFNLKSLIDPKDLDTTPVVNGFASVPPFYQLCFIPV

AC50 [1]: inconclusive
AC50 [2]: 0.0891 µM (inconclusive)
AC50 [3]: 2.82 µM (inconclusive)
Compound: O=C(c1sc2ccccc2c1Cl)N1CCN(c2ccc(F)cc2)CC1

IC50 [4]: > 20 µM (inactive)
IC50 [5]: 38.9 µM (active)
EC50 [6]: > 53 µM (inactive)
Compound: COC(=O)c1cc(OC)c(OC)cc1NC(=O)c1ccco1

IC50 [4]: > 20 µM (inactive)
IC50 [5]: 16.1 µM (active)
EC50 [6]: > 53 µM (inactive)
Compound: COc1ccc(/C=C/C(=O)Nc2c(C)nn(C)c2C)cc1COc1ccc(Br)cc1

IC50 [4]: > 20 µM (inactive)
IC50 [5]: 16.3 µM (active)
EC50 [6]: > 53 µM (inactive)
Compound: Cc1cc(C)c(C)c(S(=O)(=O)Nc2ccccc2C(=O)O)c1C

AC50 [1]: inconclusive
Compound: CCCCNC(=O)Cc1coc2ccc3ccccc3c12

AC50 [7]: 31.6 µM (inconclusive)
AC50 [1]: inconclusive
Compound: Cc1noc(C)c1-c1nccc(NC2CC2)n1

Compound: Cc1cc2n(n1)C(c1cn(-c3ccccc3)nc1C)Nc1c(C)cccc1-2 (configuration not stated)
AC50 [8]: 0.562 µM (active)

Compound: NC(=O)CC(NC(=O)c1ccc(Br)cc1)c1ccc(N2CCCCCC2)c([N+](=O)[O-])c1 (configuration not stated)
AC50 [9]: 7.66 µM (active)
AC50 [10]: > 70 µM (inactive)
AC50 [11]: 26.6 µM (active)
AC50 [12]: 15.4 µM (active)
IC50 [13]: > 80 µM (inactive)
EC50 [14]: 38.3 µM (active)

IC50 [4]: > 20 µM (inactive)
IC50 [5]: 7.94 µM (active)
EC50 [6]: 15.4 µM (active)
Compound: c1ccc2c(c1)OCCOCCOCCOCCOc1ccccc1OCCOCCOCCO2

Compound: COc1ccccc1C1c2c(C)nn(-c3ccccc3)c2NC(=O)C1NC(=O)c1ccccc1 (configuration not stated)
AC50 [15]: 23.5 µM (active)

IC50 [16]: > 80 µM (inactive)
Compound: N#Cc1c(C#N)c(SSc2c(C#N)c(C#N)c(N)n2-c2ccccc2)n(-c2ccccc2)c1N
